This is an account of results in patent publication US10604555B2, “GIP derivatives and uses thereof” (priority 2018, dated 2020).

pEC50: −log10 of the molar value. *1 amine or outer side, *2 acyl side, *3 side chain or, on linkers, in order; H or OH if unused. Where a SMILES comes first, the peptide text is derived from it. Side-chain parts run from the residue outwards. [ ]: non-standard residue; d: D form. The star is where a group is joined. C18 diacid = O=C(O)CCCCCCCCCCCCCCCCC(=O)*; γGlu = O=C(O)[C@H](CCC(=O)[*:2])N[*:1]; Nle = CCCC[C@H](N)C(=O)O; Aib = CC(C)(N)C(=O)O

As a reminder, the pEC50 is −log10 of the EC50, conventionally taken in molar units. Low readings indicate a large EC50, high ones a small EC50.

For this experiment, the target named is T1, human GIP receptor (Homo sapiens, UniProt P48546).
T1 construct: expressed in transfected cells; host or cells: BHK (parent line BHKTS13), BHK CRE luc2P hGIPR clone #5
T1 sequence (P48546 22-466): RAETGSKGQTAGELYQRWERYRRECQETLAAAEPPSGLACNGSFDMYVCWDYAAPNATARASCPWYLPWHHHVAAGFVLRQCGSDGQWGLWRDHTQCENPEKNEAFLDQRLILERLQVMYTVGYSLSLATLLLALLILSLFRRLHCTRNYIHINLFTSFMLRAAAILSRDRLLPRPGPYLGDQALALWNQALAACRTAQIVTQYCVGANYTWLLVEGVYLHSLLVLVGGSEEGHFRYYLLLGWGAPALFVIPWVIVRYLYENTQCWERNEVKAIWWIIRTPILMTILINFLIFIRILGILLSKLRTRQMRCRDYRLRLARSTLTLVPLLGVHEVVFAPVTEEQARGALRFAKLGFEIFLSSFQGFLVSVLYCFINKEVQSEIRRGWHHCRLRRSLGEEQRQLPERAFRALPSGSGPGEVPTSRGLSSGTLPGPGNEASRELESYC
Kind of experiment: In vitro potency (CRE luciferase; whole cells), BHK CRE luc2P hGIPR. As to conditions: 0.2% HSA. The experiment is classed as cell-based. As for the experimental part:
In Vitro Potency (CRE Luciferase; Whole Cells)
The in vitro potency is the measure of human GIP, GLP-1 or glucagon receptor activation, respectively, in a whole cell assay.
In vitro potency was determined by measuring the response of the human GIP, GLP-1 or glucagon receptor in a reporter gene assay in individual cell lines. […] When the respective receptor is activated it results in the production of cAMP, which in turn results in the luciferase protein being expressed. When assay incubation is completed the luciferase substrate (luciferin) is added and the enzyme converts luciferin to oxyluciferin to produce bioluminescence. The luminescence is measured as the readout for the assay.
The cells were derived from a clone containing the CRE luciferase element and were established by further transfection with the respective receptor to obtain the current clone.
The cells were cultured at 5% CO2 in Cell Culture Medium. They were aliquoted and stored in liquid nitrogen. The cells were kept in passage and were seeded out the day before each assay.
The Assay Buffer consisted of 1% ovalbumin and 0.1% Pluronic F-68 in Assay Medium with the addition of human serum albumin at twice the indicated concentrations.
1) Cells were plated at 5000 cells/well and incubated overnight.
2) Cells were washed three times in PBS.
3) Assay Medium (50 μl aliquot) with or without serum albumin was added to each well in the assay plate.
4) Stocks of the test compounds and reference compounds were diluted to a concentration of 0.2 μM in Assay Buffer. […] 8) The cells were washed three times with PBS plus some liquid in each well. 9) A 100 μl aliquot of steadylite plus reagent was added to each well of the assay plate (reagent was light sensitive). 10) Each assay plate was covered with aluminum foil to protect it from light and shaken for 30 min at room temperature. 11) Each assay plate was read in a microtiter plate reader. Calculations and Results
The data from the microtiter plate reader was transferred to GraphPad Prism software. The software performs a non-linear regression (log(agonist) vs response).
A minimum of two replicates was measured for each sample. The reported values are averages of the replicates.
Regarding `CCCC[C@H](NC(=O)[C@H](C)NC(=O)[C@@H](NC(=O)[C@H](CO)NC(=O)[C@H](Cc1ccc(O)cc1)NC(=O)[C@H](CC(=O)O)NC(=O)[C@H](CO)NC(=O)[C@@H](NC(=O)[C@H](Cc1ccccc1)NC(=O)[C@@H](NC(=O)CNC(=O)[C@H](CCC(=O)O)NC(=O)C(C)(C)NC(=O)[C@@H](N)Cc1ccc(O)cc1)[C@@H](C)O)[C@@H](C)CC)[C@@H](C)CC)C(=O)N[C@@H](CC(=O)O)C(=O)N[C@@H](CCCCN)C(=O)N[C@H](C(=O)N[C@@H](Cc1c[nH]cn1)C(=O)N[C@@H](CCC(N)=O)C(=O)N[C@@H](CCC(N)=O)C(=O)N[C@@H](CC(=O)O)C(=O)N[C@@H](Cc1ccccc1)C(=O)N[C@H](C(=O)N[C@@H](CCCCNC(=O)CC[C@H](NC(=O)CC[C@H](NC(=O)CC[C@H](NC(=O)CCCCCCCCCCCCCCCCC(=O)O)C(=O)O)C(=O)O)C(=O)O)C(=O)N[C@@H](Cc1c[nH]c2ccccc12)C(=O)N[C@@H](CC(C)C)C(=O)N[C@@H](CC(C)C)C(=O)N[C@@H](C)C(=O)N[C@@H](CCC(N)=O)C(=O)N[C@@H](CCCCN)C(=O)NCC(=O)O)C(C)C)[C@@H](C)CC` [Compound 2, N{Epsilon-24}-[(4S)-4-carboxy-4-[[(4S)-4-carboxy-4-[[(4S)-4-carboxy-4-(17-carboxyheptadecanoylamino)butanoyl]amino]butanoyl]amino]butanoyl]-[Aib2,Nle14,Lys24]-hGIP(1-31)] (H-Y[Aib]EGTFISDYSIA[Nle]DKIHQQDFVK([γGlu-γGlu-γGlu-C18 diacid])WLLAQKG-OH), the pEC50 is 10.30.
With `CCCC[C@H](NC(=O)[C@H](C)NC(=O)[C@@H](NC(=O)[C@H](CO)NC(=O)[C@H](Cc1ccc(O)cc1)NC(=O)[C@H](CC(=O)O)NC(=O)[C@H](CO)NC(=O)[C@@H](NC(=O)[C@H](Cc1ccccc1)NC(=O)[C@@H](NC(=O)CNC(=O)[C@H](CCC(=O)O)NC(=O)C(C)(C)NC(=O)[C@@H](N)Cc1ccc(O)cc1)[C@@H](C)O)[C@@H](C)CC)[C@@H](C)CC)C(=O)N[C@@H](CC(=O)O)C(=O)N[C@@H](CCCCN)C(=O)N[C@H](C(=O)N[C@@H](CCCNC(=N)N)C(=O)N[C@@H](CCC(N)=O)C(=O)N[C@@H](CCC(=O)O)C(=O)N[C@@H](CC(=O)O)C(=O)N[C@@H](Cc1ccccc1)C(=O)N[C@H](C(=O)N[C@@H](CCCCNC(=O)CC[C@H](NC(=O)CC[C@H](NC(=O)CC[C@H](NC(=O)CCCCCCCCCCCCCCCCC(=O)O)C(=O)O)C(=O)O)C(=O)O)C(=O)N[C@@H](Cc1c[nH]c2ccccc12)C(=O)N[C@@H](CC(C)C)C(=O)N[C@@H](CC(C)C)C(=O)N[C@@H](C)C(=O)N[C@@H](CCC(N)=O)C(=O)N[C@@H](CCCCN)C(=O)NCC(=O)O)C(C)C)[C@@H](C)CC` [Compound 9, N{Epsilon-24}-[(4S)-4-carboxy-4-[[(4S)-4-carboxy-4-[[(4S)-4-carboxy-4-(17-carboxyheptadecanoylamino)butanoyl]amino]butanoyl]amino]butanoyl]-[Aib2,Nle14,Arg18,Glu20,Lys24]-hGIP(1-31)] (H-Y[Aib]EGTFISDYSIA[Nle]DKIRQEDFVK([γGlu-γGlu-γGlu-C18 diacid])WLLAQKG-OH; N-terminus and C-terminus assumed), the pEC50 is 10.20.
`CCCC[C@H](NC(=O)[C@H](C)NC(=O)[C@@H](NC(=O)[C@H](CO)NC(=O)[C@H](Cc1ccc(O)cc1)NC(=O)[C@H](CC(=O)O)NC(=O)[C@H](CO)NC(=O)[C@@H](NC(=O)[C@H](Cc1ccccc1)NC(=O)[C@@H](NC(=O)CNC(=O)[C@H](CCC(=O)O)NC(=O)C(C)(C)NC(=O)[C@@H](N)Cc1ccc(O)cc1)[C@@H](C)O)[C@@H](C)CC)[C@@H](C)CC)C(=O)N[C@@H](CC(=O)O)C(=O)N[C@@H](C)C(=O)N[C@H](C(=O)N[C@@H](CCCNC(=N)N)C(=O)N[C@@H](CCC(N)=O)C(=O)N[C@@H](CCC(N)=O)C(=O)N[C@@H](CC(=O)O)C(=O)N[C@@H](Cc1ccccc1)C(=O)N[C@H](C(=O)N[C@@H](CCCCNC(=O)CC[C@H](NC(=O)CC[C@H](NC(=O)CC[C@H](NC(=O)CCCCCCCCCCCCCCCCC(=O)O)C(=O)O)C(=O)O)C(=O)O)C(=O)N[C@@H](Cc1c[nH]c2ccccc12)C(=O)N[C@@H](CC(C)C)C(=O)N[C@@H](CC(C)C)C(=O)N[C@@H](C)C(=O)N[C@@H](CCC(N)=O)C(=O)N[C@@H](CCCCN)C(=O)NCC(=O)O)C(C)C)[C@@H](C)CC` [Compound 13, N{Epsilon-24}-[(4S)-4-carboxy-4-[[(4S)-4-carboxy-4-[[(4S)-4-carboxy-4-(17-carboxyheptadecanoylamino)butanoyl]amino]butanoyl]amino]butanoyl]-[Aib2,Nle14,Ala16,Arg18,Lys24]-hGIP(1-31)] (H-Y[Aib]EGTFISDYSIA[Nle]DAIRQQDFVK([γGlu-γGlu-γGlu-C18 diacid])WLLAQKG-OH; N-terminus and C-terminus assumed) gave a pEC50 of 10.14.
On to `CCCC[C@H](NC(=O)[C@H](C)NC(=O)[C@@H](NC(=O)[C@H](CO)NC(=O)[C@H](Cc1ccc(O)cc1)NC(=O)[C@H](CC(=O)O)NC(=O)[C@H](CO)NC(=O)[C@@H](NC(=O)[C@H](Cc1ccccc1)NC(=O)[C@@H](NC(=O)CNC(=O)[C@H](CCC(=O)O)NC(=O)[C@H](C)NC(=O)[C@@H](Cc1ccc(O)cc1)NC(C)=O)[C@@H](C)O)[C@@H](C)CC)[C@@H](C)CC)C(=O)N[C@@H](CC(=O)O)C(=O)N[C@@H](CCCCN)C(=O)N[C@H](C(=O)N[C@@H](CCCNC(=N)N)C(=O)N[C@@H](CCC(N)=O)C(=O)N[C@@H](CCC(=O)O)C(=O)N[C@@H](CC(=O)O)C(=O)N[C@@H](Cc1ccccc1)C(=O)N[C@H](C(=O)N[C@@H](CCCCNC(=O)COCCOCCNC(=O)COCCOCCNC(=O)CC[C@H](NC(=O)CCCCCCCCCCCCCCCCC(=O)O)C(=O)O)C(=O)N[C@@H](Cc1c[nH]c2ccccc12)C(=O)N[C@@H](CC(C)C)C(=O)N[C@@H](CC(C)C)C(=O)N[C@@H](C)C(=O)N[C@@H](CCC(N)=O)C(=O)N[C@@H](CCCCN)C(=O)NCC(=O)O)C(C)C)[C@@H](C)CC` [Compound 16, N{1}-acetyl,N{Epsilon-24}-[2-[2-[2-[[2-[2-[2-[[(4S)-4-carboxy-4-(17-carboxy-heptadecanoylamino)butanoyl]amino]ethoxy]ethoxy]acetyl]amino]ethoxy]ethoxy]acetyl]-[D-Tyr1,Nle14,Arg18,Glu20,Lys24]-hGIP(1-31)], for which the negative-log EC50 (pEC50) was 10.60.
As for `CCCC[C@H](NC(=O)[C@H](C)NC(=O)[C@@H](NC(=O)[C@H](CO)NC(=O)[C@H](Cc1ccc(O)cc1)NC(=O)[C@H](CC(=O)O)NC(=O)[C@H](CO)NC(=O)[C@@H](NC(=O)[C@H](Cc1ccccc1)NC(=O)[C@@H](NC(=O)CNC(=O)[C@H](CCC(=O)O)NC(=O)[C@H](C)NC(=O)[C@H](Cc1ccc(O)cc1)NC(C)=O)[C@@H](C)O)[C@@H](C)CC)[C@@H](C)CC)C(=O)N[C@@H](CC(=O)O)C(=O)N[C@@H](CCCCN)C(=O)N[C@H](C(=O)N[C@@H](CCCNC(=N)N)C(=O)N[C@@H](CCC(N)=O)C(=O)N[C@@H](CCC(N)=O)C(=O)N[C@@H](CC(=O)O)C(=O)N[C@@H](Cc1ccccc1)C(=O)N[C@H](C(=O)N[C@@H](CCCCNC(=O)CC[C@H](NC(=O)CC[C@H](NC(=O)CC[C@H](NC(=O)CCCCCCCCCCCCCCCCC(=O)O)C(=O)O)C(=O)O)C(=O)O)C(=O)N[C@@H](Cc1c[nH]c2ccccc12)C(=O)N[C@@H](CC(C)C)C(=O)N[C@@H](CC(C)C)C(=O)N[C@@H](C)C(=O)N[C@@H](CCC(N)=O)C(=O)N[C@@H](CCCCN)C(=O)NCC(=O)O)C(C)C)[C@@H](C)CC` [Compound 18, N{1}-acetyl,N{Epsilon-24}-[(4S)-4-carboxy-4-[[(4S)-4-carboxy-4-[[(4S)-4-carboxy-4-(17-carboxyheptadecanoylamino)butanoyl]amino]butanoyl]amino]butanoyl]-[Nle14,Arg18,Lys24]-hGIP(1-31)], the negative logarithm of the EC50 (pEC50) was 9.26.
